Patent US10399931B2, “Octahydroanthracene compound, preparation method and application thereof” (SHANDONG XINHUA PHARMACEUTICAL CO., LTD., priority 2016, dated 2019)

Tested on: APP/PS1 transgenic mice
Assay: Morris water maze test (oriented navigation and probe test)
Format: in vivo
Conditions: for Number of times traversing the safe platform vs model group / Percentage of the swimming distance in the target quadrant vs model group / Swimming time in the target quadrant vs model group: probe test
Procedure: The drugs were administered three days after the adaptive feeding. Peanut oil was used as the solvent. The drug was intragastric administered once a day for 15 days. On the 6th to 9th day after the administration, the new object identification test was performed. On the 10th day, the Y-maze test was performed. On the 11th to 15th day, the Morris water maze test was performed to determine the improvement of learning and memory. The administration of the drugs was continued during the behavioral experiment until the animals were sacrificed (16th day).
The experimental device includes a black circular pool with a diameter of 100 cm and a height of 40 cm, and a white platform (safe platform) having a diameter of about 10 cm. The location of the safe platform could be moved. Morris Water Maze Video Detection and Analysis System was provided by the Institute of Materia Medica, China Academy of Medical Sciences. One day before the experiment, water was injected into the black circular pool (water temperature 22±1° C.), and white pigment was added to mix uniformly. The water surface was usually about 1 cm higher than the top of the safe platform. The pool was divided into four quadrants I, II, III and IV, and the safe platform was usually placed in the middle of the quadrant IV. The experiment was divided into two parts: (1) Oriented navigation: the animal grouping was input into a computer software in advance. The position of the safe platform was kept unchanged during the experiment. During the test, the experimental animal facing the pool wall was placed in the water from different inlets, and the computer simultaneously collected data and recorded the time to find the safe platform (escape latency). Data collection automatically stopped when the animal stayed on the safe platform for 10 s. The data acquisition time of the mouse was 60 s. If the animal could not find the safe platform within the specified time, the escape latency was recorded as 60 s. At the same time, the operator induced the animal to reach the safe platform and stay for 10 s. The animal was trained twice a day for 4 consecutive days. (2) Probe test: after the oriented navigation test is completed, the safe platform is removed and the animal was placed in the pool free to explore for 60 s. The camera system automatically recorded the time and distance of the experimental animal swimming in the quadrant of the safe platform within the specified time and the number of times passing through the location of the safe platform.

CC1(C)CCC(C)(C)c2c1cc1c(c2NC(=O)c2ccc(NC(=O)NCCN)cc2)C(C)(C)CCC1(C)C [OAB-14, 1-(2-amino) ethyl-3-{4-[(1,1,4,4,5,5,8,8-octamethyl-1,2,3,4,5,6,7,8-octahydro-9-anthryl)carbamoyl]phenyl} urea]
Total swimming distance vs model group (100 mg/kg, fourth day of training): significantly reduced | Escape latency vs model group (100 mg/kg, third and fourth days of training): significantly reduced | Escape latency vs model group (200 mg/kg, from the second day of training): significant decrease | Total swimming distance vs model group (200 mg/kg, from the third day of training): significant decrease | Number of times traversing the safe platform vs model group (100 mg/kg): significantly increased | Percentage of the swimming distance in the target quadrant vs model group (100 mg/kg): significantly increased | Swimming time in the target quadrant vs model group (100 mg/kg): significantly increased | Number of times traversing the safe platform vs model group (200 mg/kg): significantly increased | Percentage of the swimming distance in the target quadrant vs model group (200 mg/kg): significantly increased | Swimming time in the target quadrant vs model group (200 mg/kg): significantly increased | Spatial learning and memory disorders of the APP/PS1 mice (water maze oriented navigation, overall): significantly improved
